Experiments:
[1] = Modulatory activity at P-gp assessed as doxorubicin IC50 in human K562 cells at 3 uM after 72 hrs by MTT assay (Rvb doxorubicin alone IC50 = 0.023 +/- 0.004 uM)
[2] = Modulatory activity at P-gp assessed as doxorubicin IC50 in human K562/DOX cells at 3 uM after 72 hrs by MTT assay (Rvb doxorubicin alone IC50 = 2.00 +/- 0.24 uM)
[3] = Modulatory activity at P-gp assessed as doxorubicin IC50 in human K562 cells at 0.1 uM after 72 hrs by MTT assay (Rvb doxorubicin alone IC50 = 0.023 +/- 0.004 uM)
[4] = Modulatory activity at P-gp assessed as doxorubicin IC50 in human K562/DOX cells at 1 uM after 72 hrs by MTT assay (Rvb doxorubicin alone IC50 = 2.00 +/- 0.24 uM)
[5] = Modulatory activity at P-gp assessed as doxorubicin IC50 in human K562/DOX cells at 0.1 uM after 72 hrs by MTT assay (Rvb doxorubicin alone IC50 = 2.00 +/- 0.24 uM)
[6] = Modulatory activity at P-gp assessed as doxorubicin IC50 in human K562 cells at 1 uM after 72 hrs by MTT assay (Rvb doxorubicin alone IC50 = 0.023 +/- 0.004 uM)

Structure (SMILES) | IC50 [1] [µM] | IC50 [2] [µM] | IC50 [3] [µM] | IC50 [4] [µM] | IC50 [5] [µM] | IC50 [6] [µM]
COc1cc(/C=C/C(=O)OCCCCCN(C)CCCOC(=O)c2c3ccccc3cc3ccccc23)cc(OC)c1OC | 0.018 | 0.035 | 0.03 | 0.06 | 0.3 | –
COc1cc(/C=C/C(=O)OCCCCN(C)CCCCOC(=O)c2c3ccccc3cc3ccccc23)cc(OC)c1OC | 0.019 | 0.063 | 0.022 | 0.23 | 0.83 | 0.041
COc1cc(/C=C/C(=O)OCCCN(C)CCCCCOC(=O)c2c3ccccc3cc3ccccc23)cc(OC)c1OC | 0.051 | 0.17 | 0.011 | 0.32 | 0.62 | 0.012

Source: BindingDB's records for doi:10.1016/j.ejmech.2014.09.084 (University of Florence, 2014)
